Results taken from article PMC6804253, “Predicting and Experimentally Validating Hot-Spot Residues at Protein–Protein Interfaces” (ACS Chemical Biology, 2019).

Assays:
[1] = test system: PPIs of the SKEMPI data set (by PDBID); assay: SKEMPI experimental ΔΔG, single mutations to alanine; format: binding; conditions: for sk_class (class of the SKEMPI experimental ΔΔG): Positive / Neutral / Negative by ΔΔG threshold 4.184 kJ/mol, ref SKEMPI; for sk_class: class of the experimental SKEMPI ΔΔG
[2] = test system: PPIs of the SKEMPI data set (by PDBID); conditions: cited from earlier work; for sk_ddG_kJ: experimental ΔΔG of single mutation to alanine, SKEMPI database; for sk_ddG_kJ (SKEMPI experimental ΔΔG of binding, mutation to alanine): single mutation to alanine in the complex of the given PDBID
[3] = test system: PPIs of the SKEMPI data set (by PDBID); conditions: Flex_ddG Talaris2014, 1 REU = 1 kcal/mol assumed; cited from earlier work
[4] = test system: PPIs of the SKEMPI data set (by PDBID); conditions: Flex_ddG Ref2015, 1 REU = 1 kcal/mol assumed; cited from earlier work

Row | Substance | sk_class (class of the SKEMPI experimental ΔΔG) [1] | sk_class [1] | sk_ddG_kJ [2] [kcal/mol] | sk_ddG_kJ (SKEMPI experimental ΔΔG of binding, mutation to alanine) ([2]; ref SKEMPI) [kJ] | rosetta_ddG_kJ [3] [kcal/mol] | ref2015_ddG_kJ [4] [kcal/mol] | sk_class (class of SKEMPI experimental ΔΔG) ([2]; class by ΔΔG threshold 4.184 kJ/mol, ref SKEMPI) | sk_ddG_kJ (SKEMPI experimental ΔΔG, mutation to alanine) ([2]; single mutation to alanine, complex given by PDBID, residue group in r_group, ref SKEMPI) [kJ]
1 | 1A22 IA4A | Neutral (neutral (little effect) 4.184 kJ/mol < ΔΔG > −4.184 kJ/mol) | Neutral (neutral (little effect) 4.184 kJ/mol < ΔΔG > −4.184 kJ/mol) | 0.411 | 1.72 | -0.124 | -0.201 | – | –
2 | 1A22 LA6A | Neutral (neutral (little effect) 4.184 kJ/mol < ΔΔG > −4.184 kJ/mol) | Neutral (neutral (little effect) 4.184 kJ/mol < ΔΔG > −4.184 kJ/mol) | 0.6 | 2.51 | -0.0669 | -0.184 | – | –
3 | 1A22 PA5A | – | Neutral (neutral (little effect) 4.184 kJ/mol < ΔΔG > −4.184 kJ/mol) | 0.43 | – | 0.146 | 0.0406 | Neutral (neutral (little effect) 4.184 kJ/mol < ΔΔG > −4.184 kJ/mol) | 1.80
